Measured values as given in ChEMBL document CHEMBL4414645, “Development of Robust 17(R),18(S)-Epoxyeicosatetraenoic Acid (17,18-EEQ) Analogues as Potential Clinical Antiarrhythmic Agents” (J Med Chem, 2019).
≈ marks a conversion by molar mass, not a printed value.

Columns and labels:
[1] = Aqueous solubility of the compound in pH 7.4 potassium phosphate buffer at 2 mg after 1 to 24 hrs by RP-HPLC method; assay type: physicochemical; settings: potassium phosphate buffer, read-out: solubility
[2] = tested on: Cytochrome P450; assay: Drug metabolism in human liver microsomes assessed as CYP450-mediated formation of [+O] metabolites at 1 uM after 60 mins in absence of NADPH by LC-MS analysis; assay type: ADME; settings: 1 h
[3] = Negative chronotropic activity in Wistar rat neonatal cardiomyocytes assessed as changes to basal beating rate after 7 mins by inverted microscopic method; assay type: functional
[4] = target: T1, Cytochrome P450 2J2 (Homo sapiens, UniProt P51589); assay: Inhibition of recombinant human CYP2J2 expressed in baculovirus infected insect cells co-expressing NADPH-CYP reductase and cytochrome b5 assessed as reduction in CYP2J2-mediated EPA epoxidation by measuring sum of EEQ and DiHETEs level at 1 to 50 uM using EPA as substrate preincubated for 5 mins followed by NADPH addition and measured after 15 mins by LCMS/MS analysis; assay type: ADME; settings: recombinant enzyme, 0.25 h
T1 sequence (P51589 whole entry): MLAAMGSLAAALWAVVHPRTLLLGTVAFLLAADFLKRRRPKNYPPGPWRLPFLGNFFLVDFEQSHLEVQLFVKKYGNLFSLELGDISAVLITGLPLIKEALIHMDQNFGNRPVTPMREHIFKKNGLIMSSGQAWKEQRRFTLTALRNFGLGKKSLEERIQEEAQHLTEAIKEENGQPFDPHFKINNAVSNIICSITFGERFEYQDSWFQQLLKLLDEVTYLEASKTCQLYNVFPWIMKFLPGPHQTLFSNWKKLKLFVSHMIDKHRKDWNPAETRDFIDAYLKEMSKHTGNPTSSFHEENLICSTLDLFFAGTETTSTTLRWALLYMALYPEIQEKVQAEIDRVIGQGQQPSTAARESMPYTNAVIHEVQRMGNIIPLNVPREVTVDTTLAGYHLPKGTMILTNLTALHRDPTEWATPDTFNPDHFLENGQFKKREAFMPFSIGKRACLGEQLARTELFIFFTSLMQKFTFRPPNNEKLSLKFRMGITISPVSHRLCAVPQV

[5] = target: T2, Epoxide hydrolase 1/Bifunctional epoxide hydrolase 2 (Homo sapiens, UniProt P07099+P34913); assay: Drug metabolism in human liver microsomes assessed as microsomal/soluble epoxide hydrolase mediated formation of [+O + H2O] metabolites at 1 uM after 60 mins in absence of NADPH by LC-MS analysis; assay type: ADME; settings: 1 h
T2 sequence (P07099 whole entry): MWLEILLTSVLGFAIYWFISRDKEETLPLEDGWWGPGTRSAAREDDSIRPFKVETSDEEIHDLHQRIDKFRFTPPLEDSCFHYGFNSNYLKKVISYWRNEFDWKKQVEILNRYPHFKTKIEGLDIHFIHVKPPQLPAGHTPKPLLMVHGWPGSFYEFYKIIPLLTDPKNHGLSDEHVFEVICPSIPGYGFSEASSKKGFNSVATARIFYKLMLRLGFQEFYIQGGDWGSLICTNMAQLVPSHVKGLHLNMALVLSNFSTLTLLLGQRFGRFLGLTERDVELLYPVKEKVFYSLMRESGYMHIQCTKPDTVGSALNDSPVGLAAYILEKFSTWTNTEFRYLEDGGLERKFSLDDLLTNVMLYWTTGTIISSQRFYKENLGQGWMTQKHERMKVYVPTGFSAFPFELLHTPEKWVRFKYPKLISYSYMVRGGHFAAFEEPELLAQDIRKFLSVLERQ
T2 sequence (P34913 whole entry): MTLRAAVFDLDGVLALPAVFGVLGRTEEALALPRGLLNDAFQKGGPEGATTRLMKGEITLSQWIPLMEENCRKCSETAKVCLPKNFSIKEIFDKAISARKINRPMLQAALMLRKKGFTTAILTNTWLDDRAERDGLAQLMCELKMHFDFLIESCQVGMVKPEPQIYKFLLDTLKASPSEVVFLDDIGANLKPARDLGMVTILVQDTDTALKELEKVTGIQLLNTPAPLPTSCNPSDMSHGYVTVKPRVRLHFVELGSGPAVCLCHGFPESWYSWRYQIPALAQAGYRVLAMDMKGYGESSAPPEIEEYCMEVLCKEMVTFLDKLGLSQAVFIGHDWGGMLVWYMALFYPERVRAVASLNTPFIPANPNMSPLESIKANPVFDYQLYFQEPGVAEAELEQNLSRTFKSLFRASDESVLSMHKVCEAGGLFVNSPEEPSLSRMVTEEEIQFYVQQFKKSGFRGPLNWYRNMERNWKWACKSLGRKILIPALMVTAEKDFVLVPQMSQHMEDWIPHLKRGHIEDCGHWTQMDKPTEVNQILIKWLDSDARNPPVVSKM

[6] = Stability in human plasma at 10 uM measured over 240 mins by LC-ESI-MS/MS analysis; assay type: ADME, cell-free; settings: 4 h
[7] = Half life in human hepatocytes at 1 uM measured up to 180 mins by LC-ESI-MS/MS analysis; assay type: ADME, cell-based, Hepatocyte
[8] = Intrinsic clearance in human hepatocytes assessed per million cells at 1 uM measured up to 180 mins by LC-ESI-MS/MS analysis; assay type: ADME, cell-based, Hepatocyte; settings: read-out: CLH
[9] = Apparent permeability across apical to basolateral side in human Caco2 cells at 10 uM after 15 to 90 mins by LC-ESI-MS/MS analysis; assay type: ADME, cell-based; settings: Caco-2
[10] = Protein binding in human plasma at 10 uM incubated for 60 mins by LC-ESI-MS/MS analysis; assay type: ADME, cell-free; settings: read-out: PPB (converted)
[11] = target: T3, Cytochrome P450 1A2 (Homo sapiens, UniProt P05177); assay: Inhibition of human CYP1A2 by fluorescence method; assay type: ADME
T3 sequence (P05177 whole entry): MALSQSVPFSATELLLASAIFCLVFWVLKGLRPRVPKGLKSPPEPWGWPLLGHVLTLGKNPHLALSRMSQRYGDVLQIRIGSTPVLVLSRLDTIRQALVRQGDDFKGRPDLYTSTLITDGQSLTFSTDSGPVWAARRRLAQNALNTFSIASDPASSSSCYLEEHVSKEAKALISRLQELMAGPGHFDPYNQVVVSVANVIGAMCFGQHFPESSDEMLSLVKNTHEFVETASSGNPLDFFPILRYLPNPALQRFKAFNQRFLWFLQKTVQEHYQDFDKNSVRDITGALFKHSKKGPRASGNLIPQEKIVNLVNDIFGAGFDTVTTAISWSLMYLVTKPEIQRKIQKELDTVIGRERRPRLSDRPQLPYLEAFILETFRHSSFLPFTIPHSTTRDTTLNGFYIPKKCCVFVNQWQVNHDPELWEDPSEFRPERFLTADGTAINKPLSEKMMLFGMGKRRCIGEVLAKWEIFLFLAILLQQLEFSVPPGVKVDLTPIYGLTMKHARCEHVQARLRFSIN

solubility [1] [µg/mL] | Drug metabolism [2] | inhibition (INH) [4] | Drug metabolism [5] | Stability [6] | half-life at 1 µM [7] [h] | hepatocyte CLint at 1 µM [8] [µL/min/1e6 cells] | Papp A→B at 10 µM [9] [×10⁻⁶ cm/s] | fraction unbound at 1 h, 10 µM [10] | IC50 [11] [µM] | SMILES | Emax [3] [bpm]
1960 (≈ 5500 µM) | Metabolite_Notdetected | Not Active | Metabolite_Notdetected | Stable | 5.83 | 2.48 | 28.2 | 0.0063 | > 50 | CNC(=O)C(=O)NCCCC/C=C\CCCCCCCOCC(=O)O | 36.7
80 (≈ 226 µM) | Metabolite_Notdetected | Not Active | Metabolite_Notdetected | Stable | 0.874 | 16.5 | 5.3 | 0.0009 | > 50 | CNC(=O)C(=O)NCCCC/C=C\CCCCCCCCCC(=O)O | 38.2
40 (≈ 106 µM) | Metabolite_Notdetected | Active | Metabolite_Notdetected | Stable | 3.02 | 4.77 | 10 | 0.0003 | > 50 | CNC(=O)C(=O)NCCCC/C=C\CCCCCCCCCc1nnn[nH]1 | 37.1
